Values of other authors in patent US8362266B2, “Method of manufacturing a ruthenium complex” (Niiki Pharma Inc., priority 2007, dated 2013).

Tested on: broad spectrum of cancer cells
Settings: background statement citing Kapitza et al., J. Cancer Res. Clin. Oncol. 131(2):101-10 (2005)

| SMILES | inducing apoptosis |
| --- | --- |
| [Cl][Ru-]([Cl])([Cl])[Cl].[Na+].c1ccc2[nH]ncc2c1.c1ccc2[nH]ncc2c1 [KP1339, sodium trans-[tetrachlorobis(1H-indazole)ruthenate (III)]] | highly potent |
| [Cl-].[Cl-].[Cl-].[Cl-].[Ru+3].c1ccc2[nH][nH+]cc2c1.c1ccc2[nH]ncc2c1.c1ccc2[nH]ncc2c1 [KP1099, indazolium trans-[tetrachlorobis(1H-indazole)ruthenate (III)]] | highly potent |
